IC50 data for 31 compounds are collected here from patent publication US20220289724A1, “KIF18A INHIBITORS” (AMGEN INC., priority 2019, published 2022).

The target in the experiment is T1, Recombinant human KIF18A (1-467 His-tagged) protein (Homo sapiens, UniProt Q8NI77).
T1 construct: Recombinant human KIF18A (1-467 His-tagged) protein; His; made in house
Put plainly: KIF18A Enzyme Assay: microtubule-stimulated ATPase activity assay (ADP-Glo). To be noted: KIF18A protein 30 nM, 30 μg/mL pig microtubules, ATP at Km 75 μM, ADP-Glo luminescence, RT. Type of experiment: biochemical. From the text:
KIF18A Enzyme Assay: Microtubule-stimulated ATPase activity assay is used to measure KIF18A enzyme activity after treatment with compound. Compounds were 2-fold serially diluted in DMSO (Sigma Inc) over 22-point concentration range. Recombinant human KIF18A (1-467 His-tagged) protein was expressed using a baculovirus system and purified by affinity chromatography by Amgen Inc. Concentrations of KIF18A protein, microtubules (MT), and ATP in the reaction were optimized for standardized homogenous enzyme assay using ADP-Glorm Kinase/ATPase Assay Kit (Promega Inc). The assay measures ADP formed from the ATPase reaction. […] Concentration-response curve-fitting and IC50 determination was performed using Genedata Screener Software (Standard 15.0.1, Genedata Inc) with a four-parameter logistic regression fit model.
Table A provides data for compounds exemplified in the present application and priority document thereof, as representative compounds of the present invention, as follows: chemical name (as named by either ACD software or ChemDraw (Professional 15.0)) and biological data (IC50 in μM). Ex. […] refers to Example No.

T1 sequence (Q8NI77 1-467): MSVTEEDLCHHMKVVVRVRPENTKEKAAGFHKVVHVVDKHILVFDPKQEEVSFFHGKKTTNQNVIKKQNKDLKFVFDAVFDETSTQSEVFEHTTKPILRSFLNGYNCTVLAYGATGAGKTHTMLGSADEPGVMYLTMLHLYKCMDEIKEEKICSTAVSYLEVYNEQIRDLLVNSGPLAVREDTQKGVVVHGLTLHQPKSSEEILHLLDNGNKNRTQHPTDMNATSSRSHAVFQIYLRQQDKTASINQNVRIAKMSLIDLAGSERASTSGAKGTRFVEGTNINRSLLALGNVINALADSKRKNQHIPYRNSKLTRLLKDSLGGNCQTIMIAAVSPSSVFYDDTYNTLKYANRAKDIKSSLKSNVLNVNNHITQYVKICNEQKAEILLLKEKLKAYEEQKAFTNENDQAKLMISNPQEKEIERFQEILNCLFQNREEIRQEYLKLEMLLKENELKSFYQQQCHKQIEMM
T1 sequence (P02550 whole entry partner): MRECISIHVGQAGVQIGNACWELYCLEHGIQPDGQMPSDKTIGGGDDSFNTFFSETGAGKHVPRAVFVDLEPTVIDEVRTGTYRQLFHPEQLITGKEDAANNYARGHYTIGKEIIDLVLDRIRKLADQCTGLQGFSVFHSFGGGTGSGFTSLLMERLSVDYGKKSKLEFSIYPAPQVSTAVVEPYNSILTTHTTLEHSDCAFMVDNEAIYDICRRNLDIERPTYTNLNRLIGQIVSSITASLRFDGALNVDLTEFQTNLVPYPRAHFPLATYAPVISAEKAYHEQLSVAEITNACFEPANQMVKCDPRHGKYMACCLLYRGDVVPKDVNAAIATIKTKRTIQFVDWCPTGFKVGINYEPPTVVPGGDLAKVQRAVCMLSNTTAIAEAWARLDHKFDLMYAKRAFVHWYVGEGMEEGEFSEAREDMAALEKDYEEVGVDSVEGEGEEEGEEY
T1 sequence (P02554 whole entry partner): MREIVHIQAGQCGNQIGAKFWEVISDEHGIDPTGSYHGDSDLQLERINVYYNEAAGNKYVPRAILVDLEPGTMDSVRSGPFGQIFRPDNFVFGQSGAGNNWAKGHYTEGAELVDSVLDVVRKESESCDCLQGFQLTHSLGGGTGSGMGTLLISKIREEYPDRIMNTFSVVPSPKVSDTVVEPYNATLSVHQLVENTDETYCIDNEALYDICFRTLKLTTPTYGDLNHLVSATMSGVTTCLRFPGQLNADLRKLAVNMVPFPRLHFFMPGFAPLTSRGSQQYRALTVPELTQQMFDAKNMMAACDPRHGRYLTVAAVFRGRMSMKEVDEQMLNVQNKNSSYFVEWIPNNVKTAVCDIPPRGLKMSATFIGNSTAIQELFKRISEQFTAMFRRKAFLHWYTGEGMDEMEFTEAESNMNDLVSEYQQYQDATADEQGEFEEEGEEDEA

Turning to `C[C@@H](CO)S(=O)(=O)Nc1ccc(C(=O)Nc2cccc(S(=O)(=O)NC(C)(C)C)c2)c(N2CCC3(CC2)CC3)c1` (single isomer, unassigned) [Example 105-1], the IC50 came to 42 nM.
`C[C@H](CO)S(=O)(=O)Nc1ccc(C(=O)Nc2cccc(S(=O)(=O)NC(C)(C)C)c2)c(N2CCC3(CC2)CC3)c1` (single isomer, unassigned) [Example 105-2]: the IC50 was 57 nM.
For `CC(C)(C)NS(=O)(=O)c1cccc(NC(=O)c2ccc([C@@](C)(O)CO)cc2N2CCC3(CC2)CC3)c1` (single isomer, unassigned) [Example 108-1] the value was 92 nM; for `CC(C)(C)NS(=O)(=O)c1cccc(NC(=O)c2ccc([C@](C)(O)CO)cc2N2CCC3(CC2)CC3)c1` (single isomer, unassigned) [Example 108-2], 141 nM; for `N=[S@](=O)(c1cccc(NC(=O)c2ccc(NS(=O)(=O)CCO)cc2N2CCC3(CC2)CC3)c1)N1CCC1` (single isomer, unassigned) [Example 112-1], 142 nM.
For `N=[S@@](=O)(c1cccc(NC(=O)c2ccc(NS(=O)(=O)CCO)cc2N2CCC3(CC2)CC3)c1)N1CCC1` (single isomer, unassigned) [Example 112-2] the value was 160 nM.
For `CC(C)(C)NS(=O)(=O)c1cccc(NC(=O)c2ccc(S(=O)(=O)C3(C)COC3)cc2N2CCC3(CC2)CC3)c1` [Example 100, N-(3-(N-(tert-Butyl)sulfamoyl)phenyl)-4-((3-methyloxetan-3-yl)sulfonyl)-2-(6-azaspiro[2.5]octan-6-yl)benzamide] the value was 173 nM.
Turning to `CC(C)(C)NS(=O)(=O)c1cccc(NC(=O)c2ccc(S(C)(=O)=O)cc2N2CCC3(CC2)CC3)c1` [Example 100-1, N-(3-(N-(tert-butyl)sulfamoyl)phenyl)-4-(methylsulfonyl)-2-(6-azaspiro[2.5]octan-6-yl)benzamide], the IC50 is 61 nM.
Take `CC(C)c1cccc(NC(=O)c2ccc(S(C)(=O)=O)cc2N2CCC3(CC2)CC3)c1` [Example 100-2, N-(3-isopropylphenyl)-4-(methylsulfonyl)-2-(6-azaspiro[2.5]octan-6-yl)benzamide]: the IC50 was found to be 94 nM.
For `CS(=O)(=O)c1ccc(C(=O)Nc2cccc(C3CC3)c2)c(N2CCC3(CC2)CC3)c1` [Example 100-3, N-(3-cyclopropylphenyl)-4-(methylsulfonyl)-2-(6-azaspiro[2.5]octan-6-yl)benzamide] the value was 187 nM; for `CC(C)(C)c1cccc(NC(=O)c2ccc(S(C)(=O)=O)cc2N2CCC3(CC2)CC3)c1` [Example 100-4, N-(3-(tert-butyl)phenyl)-4-(methylsulfonyl)-2-(6-azaspiro[2.5]octan-6-yl)benzamide], 362 nM; for `CS(=O)(=O)c1ccc(C(=O)Nc2cccc3cccnc23)c(N2CCC3(CC2)CC3)c1` [Example 100-5, 4-(methylsulfonyl)-N-(quinolin-8-yl)-2-(6-azaspiro[2.5]octan-6-yl)benzamide], 246 nM.
For `Cc1ccnc2c(NC(=O)c3ccc(S(C)(=O)=O)cc3N3CCC4(CC3)CC4)cccc12` [Example 100-6, N-(4-methylquinolin-8-yl)-4-(methylsulfonyl)-2-(6-azaspiro[2.5]octan-6-yl)benzamide] the value was 61 nM.
For `CS(=O)(=O)c1ccc(C(=O)Nc2cccc3c2OCCC3)c(N2CCC3(CC2)CC3)c1` [Example 100-7, N-(chroman-8-yl)-4-(methylsulfonyl)-2-(6-azaspiro[2.5]octan-6-yl)benzamide] the value was 45 nM; for `CS(=O)(=O)c1ccc(C(=O)Nc2cccc3ccoc23)c(N2CCC3(CC2)CC3)c1` [Example 100-8, N-(benzofuran-7-yl)-4-(methylsulfonyl)-2-(6-azaspiro[2.5]octan-6-yl)benzamide], 200 nM; for `CS(=O)(=O)c1ccc(C(=O)Nc2cccc3ccsc23)c(N2CCC3(CC2)CC3)c1` [Example 100-9, N-(benzo[b]thiophen-7-yl)-4-(methylsulfonyl)-2-(6-azaspiro[2.5]octan-6-yl)benzamide], 630 nM.
Turning to `CS(=O)(=O)c1ccc(C(=O)Nc2cccc(N3CCOCC3)c2)c(N2CCC3(CC2)CC3)c1` [Example 100-10, 4-(methylsulfonyl)-N-(3-morpholinophenyl)-2-(6-azaspiro[2.5]octan-6-yl)benzamide], the IC50 is 862 nM.
For `CC(C)(C)NS(=O)(=O)c1cccc(NC(=O)c2ccc(CS(C)(=O)=O)cc2N2CCC3(CC2)CC3)c1` [Example 100-11, N-(3-(N-(tert-butyl)sulfamoyl)phenyl)-4-((methylsulfonyl)methyl)-2-(6-azaspiro[2.5]octan-6-yl)benzamide] the value was 51 nM; for `CC(C)(C)NS(=O)(=O)c1cccc(NC(=O)c2ccc(CS(=O)(=O)CCO)cc2N2CCC3(CC2)CC3)c1` [Example 100-12, N-(3-(N-(tert-butyl)sulfamoyl)phenyl)-4-(((2-hydroxyethyl)sulfonyl)methyl)-2-(6-azaspiro[2.5]octan-6-yl)benzamide], 75 nM; for `CC(C)(C)NS(=O)(=O)c1cccc(NC(=O)c2ccc(S(=O)(=O)NC(C)(C)C)cc2N2CCC3(CC2)CC3)c1` [Example 100-13, 4-(N-(tert-butyl)sulfamoyl)-N-(3-(N-(tert-butyl)sulfamoyl)phenyl)-2-(6-azaspiro[2.5]octan-6-yl)benzamide], 76 nM.
`CC(C)(C)NS(=O)(=O)c1cccc(NC(=O)c2ccc(C3(C)COC3)cc2N2CCC3(CC2)CC3)c1` [Example 100-14, N-(3-(N-(tert-butyl)sulfamoyl)phenyl)-4-(3-methyloxetan-3-yl)-2-(6-azaspiro[2.5]octan-6-yl)benzamide]: the half-maximal inhibitory concentration (IC50) was 130 nM.
For `CC(C)(C)NS(=O)(=O)c1cccc(NC(=O)c2ccc(C3(O)COC3)cc2N2CCC3(CC2)CC3)c1` [Example 100-15, N-(3-(N-(tert-butyl)sulfamoyl)phenyl)-4-(3-hydroxyoxetan-3-yl)-2-(6-azaspiro[2.5]octan-6-yl)benzamide] the value was 88 nM.
For `CC(C)(CO)Nc1cccc(NC(=O)c2ccc(S(=O)(=O)NC3(C)COC3)cc2N2CCC3(CC2)CC3)c1F` [Example 101-1, N-(2-fluoro-3-((1-hydroxy-2-methylpropan-2-yl)amino)phenyl)-4-(N-(3-methyloxetan-3-yl)sulfamoyl)-2-(6-azaspiro[2.5]octan-6-yl)benzamide] the value was 66 nM; for `CC(C)(CO)Nc1cccc(NC(=O)c2ccc(NS(=O)(=O)C3(C)CC3)cc2N2CCC3(CC2)CC3)c1F` [Example 101-2, N-(2-fluoro-3-((1-hydroxy-2-methylpropan-2-yl)amino)phenyl)-4-((1-methylcyclopropane)-1-sulfonamido)-2-(6-azaspiro[2.5]octan-6-yl)benzamide], 298 nM; for `CC(C)(CO)Nc1cccc(NC(=O)c2ccc(NS(=O)(=O)C3(C)CC3)cc2N2CCC3(CC2)CC3)c1` [Example 101-3, N-(3-((1-hydroxy-2-methylpropan-2-yl)amino)phenyl)-4-((1-methylcyclopropane)-1-sulfonamido)-2-(6-azaspiro[2.5]octan-6-yl)benzamide], 115 nM.
For `CC(C)(C)NS(=O)(=O)c1cccc(NC(=O)c2ccc(NS(=O)(=O)C3(C)CC3)cc2N2CCC3(CC2)CC3)c1` [Example 102, N-(3-(N-(tert-Butyl)sulfamoyl)phenyl)-4-((1-methylcyclopropane)-1-sulfonamido)-2-(6-azaspiro[2.5]octan-6-yl)benzamide] the value was 61 nM; for `CC(C)(C)NS(=O)(=O)c1cccc(NC(=O)c2ccc(NS(C)(=O)=O)cc2N2CCC3(CC2)CC3)c1` [Example 102-1, N-(3-(N-(tert-butyl)sulfamoyl)phenyl)-4-(methylsulfonamido)-2-(6-azaspiro[2.5]octan-6-yl)benzamide], 27 nM.
Regarding `CCS(=O)(=O)Nc1ccc(C(=O)Nc2cccc(S(=O)(=O)NC(C)(C)C)c2)c(N2CCC3(CC2)CC3)c1` [Example 102-2, N-(3-(N-(tert-butyl)sulfamoyl)phenyl)-4-(ethylsulfonamido)-2-(6-azaspiro[2.5]octan-6-yl)benzamide], the IC50 is 34 nM.
For `CC(C)S(=O)(=O)Nc1ccc(C(=O)Nc2cccc(S(=O)(=O)NC(C)(C)C)c2)c(N2CCC3(CC2)CC3)c1` [Example 102-3, N-(3-(N-(tert-butyl)sulfamoyl)phenyl)-4-((1-methylethyl)sulfonamido)-2-(6-azaspiro[2.5]octan-6-yl)benzamide] the value was 26 nM; for `CC(C)(C)NS(=O)(=O)c1cccc(NC(=O)c2ccc(NS(=O)(=O)C3CC3)cc2N2CCC3(CC2)CC3)c1` [Example 102-4, N-(3-(N-(tert-butyl)sulfamoyl)phenyl)-4-(cyclopropanesulfonamido)-2-(6-azaspiro[2.5]octan-6-yl)benzamide], 30 nM.
For `CC(C)(C)NS(=O)(=O)c1cccc(NC(=O)c2ccc(NS(=O)(=O)C(C)(C)C)cc2N2CCC3(CC2)CC3)c1` [Example 102-5, N-(3-(N-(tert-butyl)sulfamoyl)phenyl)-4-((1,1-dimethylethyl)sulfonamido)-2-(6-azaspiro[2.5]octan-6-yl)benzamide] the value was 63 nM.

In general, IC50 refers to the concentration that gives 50% inhibition.
